Converted amounts (≈) assume the structure as drawn. Where two headings read alike, the source gives them in different places.
Legend:
MraYSA (S. aureus MraY) = MraYSA (S. aureus MraY) (Staphylococcus aureus, UniProt Q2FZ93); assay: fluorescence assay of dansylated lipid I formation; format: biochemical
[1] = test system: T1, E. faecalis(VRE) ATCC 51299; assay: microbe, parasite or virus in culture; design: CLSI broth microdilution MIC in MHB-II, single trial; details: Enterococcus faecalis, 18 h
T1 construct: ATCC 51299 (VRE)
Method: (§1) MICs were determined by a microdilution broth method as recommended by the CLSI with MHB-II. For MICs of stable analogues, a 2-fold dilution of each compound was prepared in DMSO at 100-fold of the final concentration. The strains were inoculated with 5 × 10^5 cfu/mL in 96-well plates (each 100 μL/well), and 1 μL of DMSO solutions of the samples were added (contained less than 1% DMSO). The plates were incubated at 37 °C for 18 h and then MICs were determined. MICs of stable analogues in Table 1 were the highest value in three trials. MICs in Supplementary Table 1 were determined in one trial.

E. faecium ATCC 35667 = test system: T2, E. faecium ATCC 35667; assay: microbe, parasite or virus in culture; design: CLSI broth microdilution MIC in MHB-II, single trial; details: Enterococcus faecium, ATCC35667, 18 h
T2 construct: ATCC 35667
Method: as §1

[2] = test system: T3, E. faecium(VRE) ATCC 51559; assay: microbe, parasite or virus in culture; design: CLSI broth microdilution MIC in MHB-II, single trial; details: Enterococcus faecium, 18 h
T3 construct: ATCC 51559 (VRE)
Method: as §1

[3] = test system: T4, E. faecium(VRE) ATCC 51858; assay: microbe, parasite or virus in culture; design: CLSI broth microdilution MIC in MHB-II, single trial; details: Enterococcus faecium, 18 h
T4 construct: ATCC 51858 (VRE)
Method: as §1

S. aureus ATCC 29213 = test system: T5, S. aureus ATCC 29213; assay: microbe, parasite or virus in culture; design: CLSI broth microdilution MIC in MHB-II, single trial; details: Staphylococcus aureus, ATCC29213, 18 h
T5 construct: ATCC 29213
Method: as §1

[4] = test system: T6, Staphylococcus aureus MRSA JE2; assay: microbe, parasite or virus in culture; design: CLSI broth microdilution MIC in MHB-II, single trial; details: 18 h
T6 construct: JE2 (MRSA)
Method: as §1

Enterococcus faecalis 21 = test system: T7, Enterococcus faecalis 21; assay: microbe, parasite or virus in culture; design: CLSI broth microdilution MIC in MHB-II; details: Enterococcus faecalis, 21, 18 h, read-out: MIC
T7 construct: 21
Method: as §1

Enterococcus faecalis 25 = test system: T8, Enterococcus faecalis 25; assay: microbe, parasite or virus in culture; design: CLSI broth microdilution MIC in MHB-II; details: Enterococcus faecalis, 25, 18 h, read-out: MIC
T8 construct: 25
Method: as §1

Enterococcus faecalis 26 = test system: T9, Enterococcus faecalis 26; assay: microbe, parasite or virus in culture; design: CLSI broth microdilution MIC in MHB-II; details: Enterococcus faecalis, 26, 18 h, read-out: MIC
T9 construct: 26
Method: as §1

Enterococcus faecalis 27 = test system: T10, Enterococcus faecalis 27; assay: microbe, parasite or virus in culture; design: CLSI broth microdilution MIC in MHB-II; details: Enterococcus faecalis, 27, 18 h, read-out: MIC
T10 construct: 27
Method: as §1

Enterococcus faecalis 28 = test system: T11, Enterococcus faecalis 28; assay: microbe, parasite or virus in culture; design: CLSI broth microdilution MIC in MHB-II; details: Enterococcus faecalis, 28, 18 h, read-out: MIC
T11 construct: 28
Method: as §1

Enterococcus faecalis 29 = test system: T12, Enterococcus faecalis 29; assay: microbe, parasite or virus in culture; design: CLSI broth microdilution MIC in MHB-II; details: Enterococcus faecalis, 29, 18 h, read-out: MIC
T12 construct: 29
Method: as §1

Enterococcus faecalis 30 = test system: T13, Enterococcus faecalis 30; assay: microbe, parasite or virus in culture; design: CLSI broth microdilution MIC in MHB-II; details: Enterococcus faecalis, 30, 18 h, read-out: MIC
T13 construct: 30
Method: as §1

Enterococcus faecium 10 = test system: T14, Enterococcus faecium 10; assay: microbe, parasite or virus in culture; design: CLSI broth microdilution MIC in MHB-II; details: Enterococcus faecium, 10, 18 h, read-out: MIC
T14 construct: 10
Method: as §1

Enterococcus faecium 1 = assay: microbe, parasite or virus in culture; design: CLSI broth microdilution MIC in MHB-II; details: Enterococcus faecium, 1, 18 h, read-out: MIC
Method: as §1

Enterococcus faecium 7 = assay: microbe, parasite or virus in culture; design: CLSI broth microdilution MIC in MHB-II; details: Enterococcus faecium, 7, 18 h, read-out: MIC
Method: as §1

Enterococcus faecium 8 = assay: microbe, parasite or virus in culture; design: CLSI broth microdilution MIC in MHB-II; details: Enterococcus faecium, 8, 18 h, read-out: MIC
Method: as §1

Enterococcus faecium 9 = assay: microbe, parasite or virus in culture; design: CLSI broth microdilution MIC in MHB-II; details: Enterococcus faecium, 9, 18 h, read-out: MIC
Method: as §1

[5] = test system: T15, Staphylococcus aureus #2110; assay: microbe, parasite or virus in culture; design: CLSI broth microdilution MIC in MHB-II; details: Staphylococcus aureus, 18 h, read-out: MIC
T15 construct: #2110
Method: as §1

[6] = test system: T16, Staphylococcus aureus #2334; assay: microbe, parasite or virus in culture; design: CLSI broth microdilution MIC in MHB-II; details: Staphylococcus aureus, 18 h, read-out: MIC
T16 construct: #2334
Method: as §1

[7] = test system: T17, Staphylococcus aureus #2932; assay: microbe, parasite or virus in culture; design: CLSI broth microdilution MIC in MHB-II; details: Staphylococcus aureus, 18 h, read-out: MIC
T17 construct: #2932
Method: as §1

[8] = test system: T18, Staphylococcus aureus #2933; assay: microbe, parasite or virus in culture; design: CLSI broth microdilution MIC in MHB-II; details: Staphylococcus aureus, 18 h, read-out: MIC
T18 construct: #2933
Method: as §1

[9] = test system: T19, Staphylococcus aureus #2934; assay: microbe, parasite or virus in culture; design: CLSI broth microdilution MIC in MHB-II; details: Staphylococcus aureus, 18 h, read-out: MIC
T19 construct: #2934
Method: as §1

[10] = test system: T20, Staphylococcus aureus #2935; assay: microbe, parasite or virus in culture; design: CLSI broth microdilution MIC in MHB-II; details: Staphylococcus aureus, 18 h, read-out: MIC
T20 construct: #2935
Method: as §1

Sequence of MraYSA (S. aureus MraY) (Q2FZ93 whole entry): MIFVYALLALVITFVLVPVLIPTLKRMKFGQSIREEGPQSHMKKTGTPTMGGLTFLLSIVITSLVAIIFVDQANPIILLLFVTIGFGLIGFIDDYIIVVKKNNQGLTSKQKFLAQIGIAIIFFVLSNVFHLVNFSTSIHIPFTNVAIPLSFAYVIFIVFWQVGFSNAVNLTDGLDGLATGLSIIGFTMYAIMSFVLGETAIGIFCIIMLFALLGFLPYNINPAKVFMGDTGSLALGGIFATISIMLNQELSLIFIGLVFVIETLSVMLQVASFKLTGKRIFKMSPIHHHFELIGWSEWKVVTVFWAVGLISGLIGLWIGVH

Structure (SMILES) | IC50 (MraYSA (S. aureus MraY)) [nM] | MIC (Enterococcus faecalis 21) [µg/mL] | MIC (Enterococcus faecalis 25) [µg/mL] | MIC (Enterococcus faecalis 26) [µg/mL] | MIC (Enterococcus faecalis 27) [µg/mL] | MIC (Enterococcus faecalis 28) [µg/mL] | MIC (Enterococcus faecalis 29) [µg/mL] | MIC (Enterococcus faecalis 30) [µg/mL] | MIC (Enterococcus faecium 10) [µg/mL] | MIC (Enterococcus faecium 1) [µg/mL] | MIC (Enterococcus faecium 7) [µg/mL] | MIC (Enterococcus faecium 8) [µg/mL] | MIC (Enterococcus faecium 9) [µg/mL] | MIC [5] [µg/mL] | MIC [6] [µg/mL] | MIC [7] [µg/mL] | MIC [8] [µg/mL] | MIC [9] [µg/mL] | MIC [10] [µg/mL] | further results
CCCCCCCCCCCCCCCC(=O)N[C@@H](CCCCN)C(=O)NCc1cccc(CN[C@H](C(=O)O)[C@H](O[C@@H]2O[C@H](CN)[C@@H](O)[C@H]2O)[C@H]2O[C@@H](n3ccc(=O)[nH]c3=O)[C@H](O)[C@@H]2O)c1 [compound 2, analogue 2] | 5.9 | 0.13 (≈ 0.139 µM) | 0.25 (≈ 0.268 µM) | 0.13 (≈ 0.139 µM) | 0.25 (≈ 0.268 µM) | < 0.06 | 0.13 (≈ 0.139 µM) | 0.25 (≈ 0.268 µM) | 1 (≈ 1.07 µM) | 1 (≈ 1.07 µM) | 2 (≈ 2.14 µM) | 0.5 (≈ 0.535 µM) | 0.5 (≈ 0.535 µM) | 2 (≈ 2.14 µM) | 1 (≈ 1.07 µM) | 1 (≈ 1.07 µM) | 0.5 (≈ 0.535 µM) | 0.5 (≈ 0.535 µM) | 1 (≈ 1.07 µM) | MIC ([1]; read-out: 2 MIC): 0.5 µg/mL (≈ 0.535 µM); MIC (E. faecium ATCC 35667; read-out: 2 MIC): 0.5 µg/mL (≈ 0.535 µM); MIC ([2]; read-out: 2 MIC): 0.5 µg/mL (≈ 0.535 µM); MIC ([3]; read-out: 2 MIC): 2 µg/mL (≈ 2.14 µM); MIC (S. aureus ATCC 29213; read-out: 2 MIC): 1 µg/mL (≈ 1.07 µM); MIC ([4]; read-out: 2 MIC): 1 µg/mL (≈ 1.07 µM)
CCCCCCCCCCCCCCCC(=O)N[C@@H](CCCNC(=N)N)C(=O)Nc1cccc(CN[C@H](C(=O)O)[C@H](O[C@@H]2O[C@H](CN)[C@@H](O)[C@H]2O)[C@H]2O[C@@H](n3ccc(=O)[nH]c3=O)[C@H](O)[C@@H]2O)c1 [compound 8, analogue 8] | 1.8 | 1 (≈ 1.05 µM) | 0.5 (≈ 0.527 µM) | 0.25 (≈ 0.264 µM) | 0.5 (≈ 0.527 µM) | < 0.06 | 0.13 (≈ 0.137 µM) | 0.5 (≈ 0.527 µM) | 1 (≈ 1.05 µM) | 1 (≈ 1.05 µM) | 1 (≈ 1.05 µM) | 1 (≈ 1.05 µM) | 1 (≈ 1.05 µM) | 2 (≈ 2.11 µM) |  | 2 (≈ 2.11 µM) | 1 (≈ 1.05 µM) | 1 (≈ 1.05 µM) | 2 (≈ 2.11 µM) | MIC ([1]; read-out: 8 MIC): 1 µg/mL (≈ 1.05 µM); MIC (E. faecium ATCC 35667; read-out: 8 MIC): 0.5 µg/mL (≈ 0.527 µM); MIC ([2]; read-out: 8 MIC): 1 µg/mL (≈ 1.05 µM); MIC ([3]; read-out: 8 MIC): 2 µg/mL (≈ 2.11 µM); MIC (S. aureus ATCC 29213; read-out: 8 MIC): 1 µg/mL (≈ 1.05 µM); MIC ([4]; read-out: 8 MIC): 2 µg/mL (≈ 2.11 µM)
CCCCCCCCCCCCCCCC(=O)N[C@@H](CCCNC(=N)N)C(=O)NCc1cccc(CN[C@H](C(=O)O)[C@H](O[C@@H]2O[C@H](CN)[C@@H](O)[C@H]2O)[C@H]2O[C@@H](n3ccc(=O)[nH]c3=O)[C@H](O)[C@@H]2O)c1 [compound 4, analogue 4] | 5 | 0.13 (≈ 0.135 µM) | 0.25 (≈ 0.26 µM) | 0.25 (≈ 0.26 µM) | < 0.06 | < 0.06 | < 0.06 | 0.25 (≈ 0.26 µM) | 1 (≈ 1.04 µM) | 1 (≈ 1.04 µM) | 1 (≈ 1.04 µM) | 0.5 (≈ 0.52 µM) | 0.5 (≈ 0.52 µM) | 4 (≈ 4.16 µM) | 2 (≈ 2.08 µM) | 2 (≈ 2.08 µM) | 1 (≈ 1.04 µM) | 1 (≈ 1.04 µM) | 2 (≈ 2.08 µM) | MIC ([1]; read-out: 4 MIC): 0.25 µg/mL (≈ 0.26 µM); MIC (E. faecium ATCC 35667; read-out: 4 MIC): 0.5 µg/mL (≈ 0.52 µM); MIC ([2]; read-out: 4 MIC): 1 µg/mL (≈ 1.04 µM); MIC ([3]; read-out: 4 MIC): 2 µg/mL (≈ 2.08 µM); MIC (S. aureus ATCC 29213; read-out: 4 MIC): 1 µg/mL (≈ 1.04 µM); MIC ([4]; read-out: 4 MIC): 2 µg/mL (≈ 2.08 µM)
CCCCCCCCCCCCCCCC(=O)N[C@@H](CCCCN)C(=O)Nc1ccc(CN[C@H](C(=O)O)[C@H](O[C@@H]2O[C@H](CN)[C@@H](O)[C@H]2O)[C@H]2O[C@@H](n3ccc(=O)[nH]c3=O)[C@H](O)[C@@H]2O)cc1 [compound 5, analogue 5] | 3.1 | 0.5 (≈ 0.543 µM) | 0.25 (≈ 0.272 µM) | 0.13 (≈ 0.141 µM) | 0.25 (≈ 0.272 µM) | < 0.06 | < 0.06 | 0.13 (≈ 0.141 µM) | 0.5 (≈ 0.543 µM) | 1 (≈ 1.09 µM) | 0.5 (≈ 0.543 µM) | 0.25 (≈ 0.272 µM) | 0.25 (≈ 0.272 µM) | 1 (≈ 1.09 µM) | 1 (≈ 1.09 µM) | 1 (≈ 1.09 µM) | 0.5 (≈ 0.543 µM) | 0.25 (≈ 0.272 µM) | 1 (≈ 1.09 µM) | MIC ([1]; read-out: 5 MIC): 0.25 µg/mL (≈ 0.272 µM); MIC (E. faecium ATCC 35667; read-out: 5 MIC): 0.25 µg/mL (≈ 0.272 µM); MIC ([2]; read-out: 5 MIC): 0.25 µg/mL (≈ 0.272 µM); MIC ([3]; read-out: 5 MIC): 1 µg/mL (≈ 1.09 µM); MIC (S. aureus ATCC 29213; read-out: 5 MIC): 0.5 µg/mL (≈ 0.543 µM); MIC ([4]; read-out: 5 MIC): 1 µg/mL (≈ 1.09 µM)

Source: PMC11178787, “Development of a natural product optimization strategy for inhibitors against MraY, a promising antibacterial target” (Nature Communications, 2024)
